What all share (assay): biochemical
Experiment [1] addresses T1, ZmDRIK1-R187-P492 (Zea mays, UniProt C0P4K9).
T1 construct: kinase domain, R187-P492
T1 sequence (C0P4K9 1-514): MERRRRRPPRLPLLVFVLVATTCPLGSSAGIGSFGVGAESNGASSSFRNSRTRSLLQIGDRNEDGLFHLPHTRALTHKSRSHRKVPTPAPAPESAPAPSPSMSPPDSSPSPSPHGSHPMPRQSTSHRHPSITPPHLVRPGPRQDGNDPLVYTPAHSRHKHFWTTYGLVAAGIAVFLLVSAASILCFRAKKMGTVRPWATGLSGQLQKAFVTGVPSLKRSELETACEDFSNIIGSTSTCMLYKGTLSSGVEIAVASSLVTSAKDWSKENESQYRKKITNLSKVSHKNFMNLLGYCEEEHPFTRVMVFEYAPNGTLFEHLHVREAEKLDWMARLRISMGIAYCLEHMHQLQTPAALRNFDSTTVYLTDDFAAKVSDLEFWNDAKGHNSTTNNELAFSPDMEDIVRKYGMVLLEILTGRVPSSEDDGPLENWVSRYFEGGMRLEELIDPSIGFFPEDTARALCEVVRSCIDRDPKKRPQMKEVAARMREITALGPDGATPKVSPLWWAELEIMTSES
The following applies: read-out: dTm B, DSF, Boltzmann fit, 0.1% DMSO.

Experiment [2] deals with T2, ZmDRIK1 (DROUGHT RESPONSIVE INACTIVE KINASE 1), kinase domain (Zea mays, UniProt C0P4K9).
T2 construct: gene ZEAMMB73_Zm00001d028770; ZmDRIK1-KD R187-S514 (kinase domain)
T2 sequence (C0P4K9 187-514): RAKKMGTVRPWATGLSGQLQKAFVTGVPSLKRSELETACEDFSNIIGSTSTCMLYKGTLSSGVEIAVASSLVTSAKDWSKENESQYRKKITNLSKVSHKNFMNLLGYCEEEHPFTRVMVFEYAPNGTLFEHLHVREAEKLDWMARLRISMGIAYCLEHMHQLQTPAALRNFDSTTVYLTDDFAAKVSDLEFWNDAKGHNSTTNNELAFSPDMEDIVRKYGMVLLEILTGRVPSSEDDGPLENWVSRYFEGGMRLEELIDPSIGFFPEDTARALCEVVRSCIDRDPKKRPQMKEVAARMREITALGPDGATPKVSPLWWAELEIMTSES
The following applies: read-out: dTm B, sheet ZmDRIK1-R187-S514;; DSF, Boltzmann fit, 0.1% DMSO.

Experiment [3] concerns the target T3, ZmDRIK1-K217-S514 (Zea mays, UniProt C0P4K9).
T3 construct: kinase domain, K217-S514
T3 sequence (C0P4K9 1-514): T1 sequence (C0P4K9 1-514)
The following applies: read-out: dTm B, sheet ZmDRIK1-K217-S514;; DSF, Boltzmann fit, 0.1% DMSO.

In experiment [4] the target is T4, ZmDRIK1-K217-P492 (Zea mays, UniProt C0P4K9).
T4 construct: kinase domain, K217-P492
T4 sequence (C0P4K9 1-514): T1 sequence (C0P4K9 1-514)
The following applies: read-out: dTm B, sheet ZmDRIK1-K217-P492;; DSF, Boltzmann fit, 0.1% DMSO.

As to `COc1ccc(-c2nc(N3CCOCC3)c3sc(CN(C)c4ncc(C(=O)NO)cn4)cc3n2)cn1` [CUDC-907], the ΔTm at 10 µM was -0.136 °C in experiment [1], -0.531 °C in experiment [2], -0.228 °C in experiment [3] and -1.08 °C in experiment [4].
The like results for `C=CC(=O)N1CCN(c2nc(=O)n(-c3c(C)ccnc3C(C)C)c3nc(-c4c(O)cccc4F)c(F)cc23)[C@@H](C)C1` [K-Ras(G12C) inhibitor 9] were, in that order, -0.298 °C, -0.658 °C, -0.321 °C and -0.935 °C.
In the case of `CO[C@H]1C[C@@H]2CC[C@@H](C)[C@@](O)(O2)C(=O)C(=O)N2CCCC[C@H]2C(=O)O[C@H]([C@H](C)C[C@@H]2CC[C@@H](O)[C@H](OC)C2)CC(=O)[C@H](C)/C=C(\C)[C@@H](O)[C@@H](OC)C(=O)[C@H](C)C[C@H](C)/C=C/C=C/C=C/1C` [Rapamycin (Sirolimus)], the ΔTm at 10 µM in experiment [1] was -1.03 °C; in experiment [2], -1.41 °C; in experiment [3], -0.483 °C; in experiment [4] it was -1.45 °C.
The like results for `CN1CCC(c2c(O)cc(O)c3c(=O)cc(-c4ccccc4Cl)oc23)C1CO` (stereo not drawn) [P276-00] were, in that order, -0.274 °C, -0.748 °C, -0.359 °C and -0.275 °C.
In the case of `Cc1cc(C)nc(NS(=O)(=O)c2ccc(NC(=S)NC(=O)COc3ccc(Br)cc3Cl)cc2)n1` [ZCL278], the ΔTm at 10 µM in experiment [1] was -0.134 °C; in experiment [2] it was -1.01 °C; in experiment [3], -0.166 °C; in experiment [4] it was -1.02 °C.
The corresponding values for `COc1ccc(Cl)cc1NC(=O)Nc1cc(C)nc2ccccc12` [PQ 401] are -0.365 °C, -1.59 °C, -0.394 °C and -0.962 °C.
The like results for `Oc1ccc(-c2nc(-c3ccc(F)cc3)c(-c3ccncc3)[nH]2)cc1` [SB202190 (FHPI)] were, in that order, -18.3 °C, 0.194 °C, 2.58 °C and 1.22 °C.
The corresponding values for `O=C1NC(=O)/C(=C/c2ccc(-c3ccc(F)cc3O)o2)S1` [AS-252424] are 0.884 °C, 0.389 °C, 1.39 °C and 1.37 °C.
As for `Cc1cc(Nc2nc(N[C@@H](C)c3ncc(F)cn3)ncc2Cl)[nH]n1` [AZD1480], the ΔTm at 10 µM in experiment [1] is -0.161 °C; in experiment [2], -0.906 °C; in experiment [3], -0.215 °C; in experiment [4], -0.856 °C.
The corresponding values for `NC1(Cc2ccc(Cl)cc2)CCN(c2ncnc3[nH]ccc23)CC1` [CCT128930] are -0.325 °C, -0.523 °C, -0.48 °C and -1.15 °C.
The like results for `Nc1nc(Nc2ccc(S(N)(=O)=O)cc2)nn1C(=O)c1c(F)cccc1F` [JNJ-7706621] were, in that order, -0.0807 °C, -0.794 °C, -0.319 °C and -0.924 °C.
The like results for `COc1cc2ncnc(Nc3ccc(O)c(Br)c3)c2cc1OC` [WHI-P154] were, in that order, 1.76 °C, 0.428 °C, 2.03 °C and 0.694 °C.
In the case of `O=C(Nc1cc(C(F)(F)F)cc(C(F)(F)F)c1)c1cc(Cl)ccc1O` [IMD 0354], the ΔTm at 10 µM was 0.639 °C in experiment [1], -0.239 °C in experiment [2], 1.2 °C in experiment [3] and 0.526 °C in experiment [4].
The like results for `CNC(=O)c1cccc(-c2ccc3c(N4CCOC[C@@H]4C)nc(N4CCOC[C@@H]4C)nc3n2)c1` [AZD2014] were, in that order, -0.208 °C, -0.732 °C, -0.171 °C and -0.984 °C.
The like results for `CNC(=O)c1cc(COc2nnc(Nc3ccc(Cl)cc3)c3ccoc23)ccn1` [Telatinib] were, in that order, -0.226 °C, -0.862 °C, -0.252 °C and -0.739 °C.

Values taken from paper PMC7158045 (BMC Plant Biology, 2020).
